Reference: US20110028503A1, “COMPOSITIONS AND METHODS FOR INHIBITION OF THE JAK PATHWAY” (RIGEL PHARMACEUTICALS, INC., priority 2009, published 2011)

How the values were obtained:
Type in all cases: cell-based
[1] = tested on: human Ramos B cells stimulated with human IL-4 (JAK1 and JAK3 kinases, CD23 upregulation); assay: Ramos B-cell line stimulated with IL-4 (CD23 upregulation, FACS); settings: IL-4 50 units/mL, 20-24 hours, anti-CD23-PE FACS, read-out: Example 3 IC50 (Ramos B-cell line stimulated with IL-4, CD23)
Procedure: One means of assaying for JAK inhibition is detection of the effect of compounds I and II on the upregulation of downstream gene products. In the Ramos/IL4 assay, B-cells are stimulated with the cytokine Interleukin-4 (IL-4) leading to the activation of the JAK/Stat pathway through phosphorylation of the JAK family kinases, JAK1 and JAK3, which in turn phosphorylate and activate the transcription factor Stat-6. […] Twenty to 24 hours post stimulation, cells are stained for upregulation of CD23 and analyzed using flow cytometry (FACS). […] An exemplary assay of this type is described in greater detail below. B-cells stimulated with cytokine Interleukin-4 (IL-4) activate the JAK/Stat pathway through phosphorylation of the JAK family kinases, JAK-1 and JAK-3, which in turn phosphorylate and activate the transcription factor Stat-6. […] To study the effect of inhibitors on the JAK family kinases, human Ramos B cells are stimulated with human IL-4. The Ramos B-cell line was acquired from [NT] No. CRL-1596). The cells were cultured in RPMI 1640 (Cellgro, MediaTech, Inc., Herndon, Va., Cat No. 10-040-CM) with 10% fetal bovine serum (FBS), heat inactivated (JRH Biosciences, Inc, Lenexa, Kans., Cat No. 12106-500M) according to ATCC propagation protocol. […] Cells were then spun down and stained with anti-CD23-PE(BD Pharmingen, San Diego, Calif., Cat No. 555711) and analyzed by FACS. […]

[2] = tested on: primary human T-cells (IL-2 stimulated proliferation; JAK1 and JAK3); assay: Primary human T-cell proliferation assay stimulated with IL-2; settings: IL-2, 72 hours, CellTiter-Glo ATP readout, read-out: Example 4 IC50 (primary human T-cell proliferation stimulated with IL-2)
Description: In this assay, primary human T-cells derived from peripheral blood and pre-activated through stimulation of the T-cell receptor and CD28, proliferate in culture in response to the cytokine Interleukin-2 (IL-2). This proliferative response is dependent on the activation of JAK1 and JAK3 tyrosine kinases, which phosphorylate and activate the transcription factor Stat-5. […] A reduction in cell proliferation compared to control conditions is indicative of inhibition of the JAK kinase pathway. An exemplary assay of this type is described in greater detail below.
Primary human T-cells derived from peripheral blood and pre-activated through stimulation of the T-cell receptor and CD28, proliferate in vitro in response to the cytokine Interleukin-2 (IL-2). This proliferative response is dependent on the activation of JAK-1 and JAK-3 tyrosine kinases, which phosphorylate and activate the transcription factor Stat-5.
Human primary T cells were prepared as follows. […] The lymphocytes at the serum: ficoll interface were recovered and washed twice with 5 volumes of PBS. […]
Proliferation was measured using CellTiter-Glo® Luminescent Cell Viability Assay (Promega), which determines the number of viable cells in culture based on quantitation of the ATP present, as an indicator of metabolically active cells. […]

[3] = tested on: U937 human monocytic cells stimulated with IFNγ (ICAM-1 up-regulation, JAK/Stat pathway); assay: U937 IFNγ ICAM1 FACS assay; settings: U-937, IFNγ 10 ng/mL, 18-24 hours, ICAM-1 FACS, read-out: Example 6 IC50 (U937 IFNγ ICAM1 FACS assay)
Procedure: U937 human monocytic cells up-regulate ICAM-1 (CD54) surface expression in response to a variety of different stimuli. Therefore, using ICAM-1 expression as readout, compound effects on different signaling pathways can be assessed in the same cell type. IFNγ up-regulates ICAM-1 through activation of the JAK/Stat pathway. In this example, the up-regulation of ICAM-1 by IFNγ was assessed.
U937 cells were grown in 10% RPMI. The cells were then plated at a concentration of 100,000 cells per 160 μL in 96 well flat bottom plates. […] Then 4 μL of test compound was transferred to 76 μL of 10% RPMI resulting in a 10× solution (100 μM test compound, 5% DMSO). For control wells, 4 μL of DMSO was diluted into 76 μL 10% RPMI.
The assay was performed in duplicate with 8 points (8 3-fold dilution concentrations from […]) and with 4 wells of DMSO only (control wells) under stimulated conditions and 4 wells of DMSO only under unstimulated conditions.
The diluted compound plate was mixed 2× using a multimek (Beckman Coulter of Brea, Calif.) and then 20 μL of the diluted compounds was transferred to the 96 well plate containing 160 μL of cells, which were then mixed again twice at low speeds. The cells and compounds were then pre-incubated for 30 minutes at 37° C. with 5% CO2. […]
Both % live cells and ICAM-1 expression was analyzed. […]

C#CCOc1ccc(Nc2nc(Nc3ccc(C)c(S(N)(=O)=O)c3)ncc2F)cc1 [Compound I, N2-(3-Aminosulfonyl-4-methylphenyl)-5-fluoro-N4-[4-(prop-2-ynyloxy)phenyl]-2,4-pyrimidinediamine]
IC50 [1]: 56 nM | IC50 [2]: 181 nM | IC50 [3]: 565 nM
